ChEMBL document CHEMBL5724914, “Linking interpersonal differences in gut microbiota composition and drug biotransformation activity” (2024)

assay: (§1) The drug is tested on Z-029 corresponding to rat gut metagenome with ENA study accession number: PRJEB37062 and ENA sample accession number: ERS12561828 for biotransformation under anaerobic condition. The drug concentrations were measured over 9 timepoints collected between 0 and 24 hours of incubation by liquid-chromatography-coupled mass spectrometry (LC–MS); conditions: 2 µM
Note: call rule not given here.

| SMILES | Bacterial Biotransformation |
| --- | --- |
| CCOC(=O)C1=C[C@]2(CC)CCCN3CCc4c(n1c1ccccc41)[C@@H]32 [VINPOCETINE] | Compound NOT metabolized |
| C[C@@H](c1ncncc1F)[C@](O)(Cn1cncn1)c1ccc(F)cc1F [VORICONAZOLE] | Compound metabolized |

assay: as §1, with “Z-027” for “Z-029”, “to” for “to rat gut”, “ERS12561826” for “ERS12561828”; conditions: 2 µM

| SMILES | Bacterial Biotransformation |
| --- | --- |
| CCOC(=O)C1=C[C@]2(CC)CCCN3CCc4c(n1c1ccccc41)[C@@H]32 [VINPOCETINE] | Compound NOT metabolized |
| C[C@@H](c1ncncc1F)[C@](O)(Cn1cncn1)c1ccc(F)cc1F [VORICONAZOLE] | Compound NOT metabolized |

assay: as §1, with “on Z-024” for “on Z-029”, “to pig” for “to rat”, “number: ERS12561823” for “number: ERS12561828”; conditions: 2 µM

| SMILES | Bacterial Biotransformation |
| --- | --- |
| CCOC(=O)C1=C[C@]2(CC)CCCN3CCc4c(n1c1ccccc41)[C@@H]32 [VINPOCETINE] | Compound metabolized |
| C[C@@H](c1ncncc1F)[C@](O)(Cn1cncn1)c1ccc(F)cc1F [VORICONAZOLE] | Compound metabolized |

assay: as §1, with “on Z-016” for “on Z-029”, “to mouse” for “to rat”, “number: ERS12561815” for “number: ERS12561828”; conditions: 2 µM

| SMILES | Bacterial Biotransformation |
| --- | --- |
| CCOC(=O)C1=C[C@]2(CC)CCCN3CCc4c(n1c1ccccc41)[C@@H]32 [VINPOCETINE] | Compound metabolized |
| C[C@@H](c1ncncc1F)[C@](O)(Cn1cncn1)c1ccc(F)cc1F [VORICONAZOLE] | Compound metabolized |

assay: as §1, with “Z-012” for “Z-029”, “to” for “to rat gut”, “ERS12561812” for “ERS12561828”; conditions: 2 µM

| SMILES | Bacterial Biotransformation |
| --- | --- |
| CCOC(=O)C1=C[C@]2(CC)CCCN3CCc4c(n1c1ccccc41)[C@@H]32 [VINPOCETINE] | Compound NOT metabolized |
| C[C@@H](c1ncncc1F)[C@](O)(Cn1cncn1)c1ccc(F)cc1F [VORICONAZOLE] | Compound metabolized |

assay: as §1, with “on Z-011” for “on Z-029”, “to mouse” for “to rat”, “number: ERS12561811” for “number: ERS12561828”; conditions: 2 µM

| SMILES | Bacterial Biotransformation |
| --- | --- |
| CCOC(=O)C1=C[C@]2(CC)CCCN3CCc4c(n1c1ccccc41)[C@@H]32 [VINPOCETINE] | Compound NOT metabolized |
| C[C@@H](c1ncncc1F)[C@](O)(Cn1cncn1)c1ccc(F)cc1F [VORICONAZOLE] | Compound NOT metabolized |

assay: as §1, with “on Z-002” for “on Z-029”, “to rabbit” for “to rat”, “number: ERS12561802” for “number: ERS12561828”; conditions: 2 µM

| SMILES | Bacterial Biotransformation |
| --- | --- |
| CCOC(=O)C1=C[C@]2(CC)CCCN3CCc4c(n1c1ccccc41)[C@@H]32 [VINPOCETINE] | Compound metabolized |
| C[C@@H](c1ncncc1F)[C@](O)(Cn1cncn1)c1ccc(F)cc1F [VORICONAZOLE] | Compound metabolized |

assay: as §1, with “on WLS-240” for “on Z-029”, “to human” for “to rat”, “number: ERS12561773” for “number: ERS12561828”; conditions: 2 µM

| SMILES | Bacterial Biotransformation |
| --- | --- |
| CCOC(=O)C1=C[C@]2(CC)CCCN3CCc4c(n1c1ccccc41)[C@@H]32 [VINPOCETINE] | Compound metabolized |
| C[C@@H](c1ncncc1F)[C@](O)(Cn1cncn1)c1ccc(F)cc1F [VORICONAZOLE] | Compound metabolized |

assay: as §1, with “on WLS-098” for “on Z-029”, “to human” for “to rat”, “number: ERS12561754” for “number: ERS12561828”; conditions: 2 µM

| SMILES | Bacterial Biotransformation |
| --- | --- |
| CCOC(=O)C1=C[C@]2(CC)CCCN3CCc4c(n1c1ccccc41)[C@@H]32 [VINPOCETINE] | Compound metabolized |
| C[C@@H](c1ncncc1F)[C@](O)(Cn1cncn1)c1ccc(F)cc1F [VORICONAZOLE] | Compound metabolized |

assay: as §1, with “on WLS-069” for “on Z-029”, “to human” for “to rat”, “number: ERS12561748” for “number: ERS12561828”; conditions: 2 µM

| SMILES | Bacterial Biotransformation |
| --- | --- |
| CCOC(=O)C1=C[C@]2(CC)CCCN3CCc4c(n1c1ccccc41)[C@@H]32 [VINPOCETINE] | Compound metabolized |
| C[C@@H](c1ncncc1F)[C@](O)(Cn1cncn1)c1ccc(F)cc1F [VORICONAZOLE] | Compound metabolized |

assay: as §1, with “on WLS-038” for “on Z-029”, “to human” for “to rat”, “number: ERS12561745” for “number: ERS12561828”; conditions: 2 µM

| SMILES | Bacterial Biotransformation |
| --- | --- |
| CCOC(=O)C1=C[C@]2(CC)CCCN3CCc4c(n1c1ccccc41)[C@@H]32 [VINPOCETINE] | Compound NOT metabolized |
| C[C@@H](c1ncncc1F)[C@](O)(Cn1cncn1)c1ccc(F)cc1F [VORICONAZOLE] | Compound metabolized |

conditions: human gut metagenome, 24 h, 2 µM

| SMILES | Bacterial Biotransformation |
| --- | --- |
| CCOC(=O)C1=C[C@]2(CC)CCCN3CCc4c(n1c1ccccc41)[C@@H]32 [VINPOCETINE] | Compound NOT metabolized |
| C[C@@H](c1ncncc1F)[C@](O)(Cn1cncn1)c1ccc(F)cc1F [VORICONAZOLE] | Compound metabolized |

conditions: human gut metagenome, 24 h, 2 µM; remark: another data set of the same source

| SMILES | Bacterial Biotransformation |
| --- | --- |
| CCOC(=O)C1=C[C@]2(CC)CCCN3CCc4c(n1c1ccccc41)[C@@H]32 [VINPOCETINE] | Compound metabolized |
| C[C@@H](c1ncncc1F)[C@](O)(Cn1cncn1)c1ccc(F)cc1F [VORICONAZOLE] | Compound metabolized |

conditions: human gut metagenome, 24 h, 2 µM; remark: another data set of the same source

| SMILES | Bacterial Biotransformation |
| --- | --- |
| CCOC(=O)C1=C[C@]2(CC)CCCN3CCc4c(n1c1ccccc41)[C@@H]32 [VINPOCETINE] | Compound metabolized |
| C[C@@H](c1ncncc1F)[C@](O)(Cn1cncn1)c1ccc(F)cc1F [VORICONAZOLE] | Compound metabolized |

conditions: human gut metagenome, 24 h, 2 µM; remark: another data set of the same source

| SMILES | Bacterial Biotransformation |
| --- | --- |
| CCOC(=O)C1=C[C@]2(CC)CCCN3CCc4c(n1c1ccccc41)[C@@H]32 [VINPOCETINE] | Compound metabolized |
| C[C@@H](c1ncncc1F)[C@](O)(Cn1cncn1)c1ccc(F)cc1F [VORICONAZOLE] | Compound metabolized |

conditions: human gut metagenome, 24 h, 2 µM; remark: another data set of the same source

| SMILES | Bacterial Biotransformation |
| --- | --- |
| CCOC(=O)C1=C[C@]2(CC)CCCN3CCc4c(n1c1ccccc41)[C@@H]32 [VINPOCETINE] | Compound metabolized |
| C[C@@H](c1ncncc1F)[C@](O)(Cn1cncn1)c1ccc(F)cc1F [VORICONAZOLE] | Compound metabolized |

conditions: human gut metagenome, 24 h, 2 µM; remark: another data set of the same source

| SMILES | Bacterial Biotransformation |
| --- | --- |
| CCOC(=O)C1=C[C@]2(CC)CCCN3CCc4c(n1c1ccccc41)[C@@H]32 [VINPOCETINE] | Compound metabolized |
| C[C@@H](c1ncncc1F)[C@](O)(Cn1cncn1)c1ccc(F)cc1F [VORICONAZOLE] | Compound metabolized |

conditions: human gut metagenome, 24 h, 2 µM; remark: another data set of the same source

| SMILES | Bacterial Biotransformation |
| --- | --- |
| CCOC(=O)C1=C[C@]2(CC)CCCN3CCc4c(n1c1ccccc41)[C@@H]32 [VINPOCETINE] | Compound metabolized |
| C[C@@H](c1ncncc1F)[C@](O)(Cn1cncn1)c1ccc(F)cc1F [VORICONAZOLE] | Compound metabolized |

conditions: human gut metagenome, 24 h, 2 µM; remark: another data set of the same source

| SMILES | Bacterial Biotransformation |
| --- | --- |
| CCOC(=O)C1=C[C@]2(CC)CCCN3CCc4c(n1c1ccccc41)[C@@H]32 [VINPOCETINE] | Compound NOT metabolized |
| C[C@@H](c1ncncc1F)[C@](O)(Cn1cncn1)c1ccc(F)cc1F [VORICONAZOLE] | Compound metabolized |

conditions: human gut metagenome, 24 h, 2 µM; remark: another data set of the same source

| SMILES | Bacterial Biotransformation |
| --- | --- |
| CCOC(=O)C1=C[C@]2(CC)CCCN3CCc4c(n1c1ccccc41)[C@@H]32 [VINPOCETINE] | Compound metabolized |
| C[C@@H](c1ncncc1F)[C@](O)(Cn1cncn1)c1ccc(F)cc1F [VORICONAZOLE] | Compound metabolized |
